According to patent US20230399319A1, “Acylsulfamide Compound and Pharmaceutical Use Therefor” (Japan Tobacco Inc., priority 2019, published 2023):

Legend:
[1] = test system: Mice expressing CAPS-related NLRP3 mutations; details: strain expressing CAPS-related NLRP3 mutations; cited from earlier work
[2] = target: NLRP3 inflammasome (Homo sapiens (Human), UniProt Q96P20); experiment: Evaluation of NLRP3 inflammasome inhibitory activity (inhibition of IL-1β production in THP1-Null cells, LPS/Nigericin); details: IL-1β production in THP1-Null cells, PMA/LPS primed, Nigericin 7.5 μmol/L
Sequence of NLRP3 inflammasome (Q96P20 whole entry): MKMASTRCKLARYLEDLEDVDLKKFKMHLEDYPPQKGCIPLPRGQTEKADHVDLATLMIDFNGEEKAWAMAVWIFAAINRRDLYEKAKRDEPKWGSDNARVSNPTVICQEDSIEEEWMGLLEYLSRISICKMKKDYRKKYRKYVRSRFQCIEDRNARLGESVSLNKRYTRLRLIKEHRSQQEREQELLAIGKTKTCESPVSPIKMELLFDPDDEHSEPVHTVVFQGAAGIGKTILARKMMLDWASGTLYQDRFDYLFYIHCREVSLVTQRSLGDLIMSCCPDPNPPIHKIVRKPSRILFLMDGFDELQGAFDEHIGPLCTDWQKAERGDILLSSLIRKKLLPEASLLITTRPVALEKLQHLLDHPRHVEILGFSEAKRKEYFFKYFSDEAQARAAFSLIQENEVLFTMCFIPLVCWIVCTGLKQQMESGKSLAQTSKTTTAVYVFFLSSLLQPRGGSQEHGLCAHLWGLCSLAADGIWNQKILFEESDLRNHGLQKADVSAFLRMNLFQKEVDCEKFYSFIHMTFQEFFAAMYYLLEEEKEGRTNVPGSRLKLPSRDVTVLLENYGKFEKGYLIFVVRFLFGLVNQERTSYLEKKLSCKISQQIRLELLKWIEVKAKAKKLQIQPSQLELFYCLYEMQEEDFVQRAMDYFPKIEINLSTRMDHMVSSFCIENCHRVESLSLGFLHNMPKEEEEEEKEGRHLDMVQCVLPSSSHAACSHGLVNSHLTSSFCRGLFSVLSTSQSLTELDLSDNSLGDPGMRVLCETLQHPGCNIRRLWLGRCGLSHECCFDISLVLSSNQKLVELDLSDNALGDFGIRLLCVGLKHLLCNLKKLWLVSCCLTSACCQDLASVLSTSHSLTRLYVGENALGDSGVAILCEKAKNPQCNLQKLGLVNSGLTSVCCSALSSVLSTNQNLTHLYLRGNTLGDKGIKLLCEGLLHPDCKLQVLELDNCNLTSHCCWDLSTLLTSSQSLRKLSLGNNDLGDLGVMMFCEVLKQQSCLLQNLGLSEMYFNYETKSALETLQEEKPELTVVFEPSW

[3] = test system: MOG35-55EAE model mice; details: administration after the onset; cited from earlier work
[4] = test system: intra-articular urate-injected arthritis model; details: cited from earlier work

SMILES | IC50 [2] | also measured
O=C(O)c1ccc(/C=C2/SC(=S)N(Cc3cccc(C(F)(F)F)c3)C2=O)cc1 [CY-09] | – | survival [1]: improved the survival; systemic lethal inflammation [1]: suppressed systemic lethal inflammation
Cc1ccc(C(F)(F)F)cc1Nc1nc(C(=O)NS(=O)(=O)N2CCC(S(=O)(=O)N(C)C)CC2)co1 [Example 75] | 32 nM | –
COc1ccc(Cl)cc1C(=O)NCCc1ccc(S(=O)(=O)NO)cc1 [JC-171, 5-Chloro-N-[2-(4-hydroxysulfamoyl-phenyl)-ethyl]-2-methoxy-benzamide] | – | impairment of motor function [3]: inhibited the impairment of motor function
CS(=O)(=O)CCC#N [OLT1177] | – | arthritis [4]: suppressed arthritis

Second part, led by results:

IC50 [2] | SMILES | also measured
< 30 nM | Cc1ccc(C(F)(F)F)cc1Nc1nc(C(=O)NS(=O)(=O)N2CCOCC2)co1 [Example 70] | –
92 nM | Cc1ccc(C(F)(F)F)cc1Nc1nc(C(=O)NS(=O)(=O)N2CCCC2)co1 [Example 76] | –
56 nM | Cc1ccc(C(F)(F)F)cc1Nc1nc(C(=O)NS(=O)(=O)N2CC3CCC(C2)O3)co1 [Example 77] | –
